Experimental data as given in patent US10130608B2, “Methods of treating or preventing multiple sclerosis” (Toray Industries, Inc., priority 2014, dated 2018).

What was measured:
[1] = test system: MOG-induced mouse experimental autoimmune encephalomyelitis model; test: MOG-induced mouse experimental autoimmune encephalomyelitis model, 30 mg/kg; format: in vivo; details: C57BL/6J mouse, MOG 35-55; 30 mg/kg orally twice daily for 16 days from three days before inoculation; scored 13 days after inoculation
Method: The action of the cyclohexane derivative (I) or the pharmaceutically acceptable salt thereof against an increase in the neurological symptom score in a MOG-induced mouse experimental autoimmune encephalomyelitis model was evaluated. The mouse experimental autoimmune encephalomyelitis model was prepared according to the method described in Journal of Neuroscience Research, 2006, Vol. 84, pp. 1225-1234 with partial modification. A MOG 35-55 administration solution, which was prepared by mixing equal volumes of a PBS solution containing a partially synthesized peptide of MOG (MOG 35-55; CS Bio Company Inc.) whose concentration was adjusted to 4 mg/mL and Freund's complete adjuvant, was intracutaneously inoculated to both lateral regions of each C57BL/6J mouse (male, 7-weeks old) (Charles River Laboratories Japan) in a total amount of 0.1 mL (0.05 mL per side). Further, on the day of inoculation of the MOG 35-55 administration solution, and two days thereafter, 200 μL of pertussis toxin (Sigma) whose concentration was adjusted to 1 μg/mL was intraperitoneally administered to each mouse. From three days before inoculation of the MOG 35-55 administration solution, Compound 3 was orally administered to mice twice daily at a dose of 30 mg/kg for 16 successive days. Compound 3 was used as a suspension in 0.5% methylcellulose solution. The group in which Compound 3 was administered to mice was provided as the Compound 3 administration group. To provide a vehicle administration group, 0.5% methylcellulose solution was administered in the same manner. Thirteen days after inoculation of the MOG 35-55 administration solution, the neurological symptom score was scored (0: normal, 1: limp tail or hind limb weakness, 2: limp tail and hind limb weakness, 3: partial hind limb paralysis, 4: complete hind limb paralysis, 5: moribund state). […] Comparative Control Compound 1 and Comparative Control Compound 2 were similarly evaluated. […] Thirteen days after inoculation of the MOG 35-55 administration solution, the neurological symptom score was scored.

[2] = test system: MOG-induced mouse experimental autoimmune encephalomyelitis model; test: MOG-induced mouse experimental autoimmune encephalomyelitis model, 3 mg/kg and 10 mg/kg; format: in vivo; details: C57BL/6J mouse, MOG 35-55, scored 14 days after inoculation
Method: Action of the cyclohexane derivative (I) or the pharmaceutically acceptable salt thereof against an increase in the neurological symptom score in a MOG-induced mouse experimental autoimmune encephalomyelitis model was evaluated. A MOG 35-55 administration solution, which was prepared by mixing equal volumes of a PBS solution containing a partially synthesized peptide of MOG (MOG 35-55; CS Bio Company Inc.) whose concentration was adjusted to 4 mg/mL and Freund's complete adjuvant, was intracutaneously inoculated to both lateral regions of each C57BL/6J mouse (male, 10-weeks old) (Charles River Laboratories Japan) in a total amount of 0.1 mL (0.05 mL per side). Further, on the day of inoculation of the MOG 35-55 administration solution, and two days thereafter, 200 μL of pertussis toxin (Sigma) whose concentration was adjusted to 1 μg/mL was intraperitoneally administered to each mouse. As a test compound, Compound 3 was used. […] Fourteen days after inoculation of the MOG 35-55 administration solution, the neurological symptom score was scored (0: normal, 1: limp tail or hind limb weakness, 2: limp tail and hind limb weakness, 3: partial hind limb paralysis, 4: complete hind limb paralysis, 5: moribund state). […]

thrombin = molecular target: T1, thrombin (Homo sapiens, UniProt P00734); test: Thrombin activity assay (SensoLyte 520 kit, FRET); format: biochemical; details: at the maximum concentration, 30 μmol/L; read-out: thrombin activity inhibition rate
T1 construct: purchased Anaspec Inc
Method: The action of the cyclohexane derivative (I) or the pharmaceutically acceptable salt thereof on the thrombin activity was evaluated using a SensoLyte (registered trademark) 520 thrombin activity assay kit manufactured by Anaspec Inc., which utilizes fluorescence resonance energy transfer (FRET).
The test compound was dissolved in dimethylsulfoxide (hereinafter referred to as DMSO), and diluted with the assay buffer included in the kit to a final DMSO concentration of 0.5 to 1%. […] Thereafter, the fluorescence value was measured by excitation at 485 nm and detection at 520 nm.
The thrombin activity inhibition rate (%) was calculated according to Equation 1, and regression analysis was carried out to obtain a sigmoid curve (variable slope), thereby calculating the IC50 value of the thrombin activity inhibition by the test compound: Thrombin activity inhibition rate (%)=(1−((fluorescence value in the presence of both thrombin and the test compound)−(fluorescence value in the absence of both thrombin and the test compound))/((fluorescence value in the presence of thrombin and absence of the test compound)−(fluorescence value in the absence of both thrombin and the test compound)))×100 Equation 1.

[3] = test system: PLP-induced mouse experimental autoimmune encephalomyelitis model; test: PLP-induced mouse experimental autoimmune encephalomyelitis model; format: in vivo; details: SJL mouse, PLP 139-151; 10 mg/kg orally twice daily for 7 days from two days after inoculation; scored 9 days after inoculation
Method: Action of the cyclohexane derivative (I) or the pharmaceutically acceptable salt thereof against an increase in the neurological symptom score in a PLP-induced mouse experimental autoimmune encephalomyelitis model was evaluated. The mouse experimental autoimmune encephalomyelitis model was prepared according to the method described in International Immunology, 1997, Vol. 9, pp. 1243-1251 with partial modification. A PLP 139-151 administration solution, which was prepared by mixing equal volumes of a PBS solution containing a partially synthesized peptide of PLP (PLP 139-151; Kokusan Chemical Co., Ltd.) whose concentration was adjusted to 2 mg/mL and Freund's complete adjuvant, was intracutaneously inoculated to both lateral regions of each SJL mouse (female, 6-weeks old) (Charles River Laboratories Japan) in a total amount of 0.1 mL (0.05 mL per side). Further, on the day of inoculation of the PLP 139-151 administration solution, and two days thereafter, 200 μL of pertussis toxin (Sigma) whose concentration was adjusted to 1 μg/mL was intraperitoneally administered to each mouse. […] Nine days after inoculation of the PLP 139-151 administration solution, the neurological symptom score was scored (0: normal, 1: limp tail or hind limb weakness, 2: limp tail and hind limb weakness, 3: partial hind limb paralysis, 4: complete hind limb paralysis, 5: moribund state). […]

inhibition at 30 µM (thrombin) [%]	SMILES	rate of suppression of exacerbation of neurological symptoms [1] [%]	rate of suppression of exacerbation of neurological symptoms ([2]; 3 mg/kg orally twice daily for 12 days from two days after inoculation) [%]	rate of suppression of exacerbation of neurological symptoms ([2]; 10 mg/kg orally twice daily for 12 days from two days after inoculation) [%]	rate of suppression of exacerbation of neurological symptoms [3] [%]
	COc1ccc(-n2nc(C3(O)CCC(O)CC3)cc2-c2ccccc2C)cc1 (stereo not shown) [Comparative Control Compound 2]	6.5			
17.2	COc1ccc(-n2nc(C3(O)CCC(O)CC3)cc2-c2ccc(C)cc2)cc1 (stereo not drawn) [Compound 3, 1-(1-(4-methoxyphenyl)-5-(p-tolyl)-1H-pyrazol-3-yl)cyclohexane-cis-1,4-diol]	85.7	53.8	61.5	66.4
	COc1ccc(-n2nc(C3(O)CCNCC3)cc2-c2ccc(C)cc2)cc1 [Comparative Control Compound 1]	3.3			
